{"source": "patent US20040014791A1", "about": "“Thiazolidinedione derivative and its use as antidiabetic” (priority 2000, published 2004)", "key": {"[1]": {"assay": "Flow properties: Hausner Ratio (bulk density vs tapped bulk density)", "assay_type": "physicochemical", "conditions": "ratio between the bulk density and the tapped bulk density; product of Example 3", "method": "When used herein in respect of certain compounds the term “good flow properties” is suitably characterised by the said compound having a Hausner ratio of less than or equal to 1.5, especially of less than or equal to 1.25.\nFlow Properties of the Fumarate\nThe ratio between the bulk density and the tapped bulk density (Hausner Ratio) of the Fumarate was determined using standard methods (“Pharmaceutics—The Science of Dosage Form Design”, editor M. Aulton, 1988, published by: Churchill Livingstone)."}, "[2]": {"assay": "Solid state stability of the drug substance (storage, HPLC assay for final content and degradation products)", "assay_type": "physicochemical", "conditions": "1 month, product of Example 3", "quoted_text": "The solid state stability of the drug substance was determined by storing approximately 1.0 g of the material in a glass bottle at a) 40° C./75% Relative Humidity (RH), open exposure, for 1 month and b) at 50° C., closed, foe 1 month. The material was assayed by HPLC for final content and degradation products in both cases."}, "[3]": {"conditions": "40° C./75% Relative Humidity (RH), open exposure"}}}
{"smiles": "CN(CCOc1ccc(CC2SC(=O)NC2=O)cc1)c1ccccn1.O=C(O)/C=C/C(=O)O", "note": "(centres unmarked) [Fumarate, 5-[4-[2-(N-methyl-N-(2-pyridyl)amino)ethoxy]benzyl]thiazolidine-2,4-dione fumarate]", "values": [{"measurement": "Hausner Ratio", "setting": "[1]", "result": 1.0}, {"measurement": "Solid state stability: HPLC assay", "setting": "[2]; [3]", "result": 100, "unit": "% initial"}, {"measurement": "Solid state stability: degradation observed", "setting": "[2]; [3]", "result": "No significant degradation observed"}, {"measurement": "Solid state stability: HPLC assay", "setting": "[2]; 50° C., closed", "result": 99, "unit": "% initial"}, {"measurement": "Solid state stability: degradation observed", "setting": "[2]; 50° C., closed", "result": "No significant degradation observed"}]}
